Measurements reported in patent US11910795B2, “Natural indole auxin and aminopolycarboxylic acid herbicidal compositions” (Suncor Energy Inc., priority 2013, dated 2024).

What was measured:
Dandelions [1] = test: Field testing control of dandelions in Ontario (Example 5); format: in vivo; details: Table 6 (FIG. 6), 200 gpa, rated 10 and 30 days following application
Procedure: Formulations containing IBA, DTPA, and combinations of IBA with various chelating agents including salts of DTPA, EDTA, ethylenediamine-N,N′-disuccinic acid (EDDS), N-(hydroxyethyl)-ethylenediaminetriacetic acid (HEDTA), and lignosulfonic acid were prepared as detailed in Table 6 the solutions were prepared in water at the concentrations indicated ([…]). The formulations were applied at a rate of 200 gpa onto sections of a plot containing dandelions and other weeds in Ontario, Canada. Injuries to the grass and dandelions were visually inspected and rated 10 days and 30 days following application of the formulations. Performance of the formulations was evaluated based on the percentage of control of the dandelions observed. Injuries to the grass were also rated using a 0-10 scale: 0=no injury; 10=plant dead, severe injury.

buckhorn plantains = test: Field testing control of buckhorn plantain in North Carolina (Example 4); format: in vivo; details: Table 5 (FIG. 5)
Procedure: The formulations were applied at a rate of 200 gpa onto sections of a plot containing buckhorn plantains and other weeds in North Carolina, U.S.A. A second application of the formulations was made 21 days following the initial application. The sections were visually inspected and rated over the course of 56 days following the initial application. Performance of the formulations was evaluated based on the percentage control of the buckhorn plantains observed in each section.

Dandelions [2] = test: Control of dandelions in greenhouse study (Example 2, IBA/EDTA); format: in vivo; details: for control on weeds: Table 3 (FIG. 3), greenhouse, 200 gpa, result in words; for effect on weeds at concentrations greater than 5% by weight / herbicidal effect at concentrations lower than 5% by weight: tested alone; for effect on weeds at concentrations greater than 5% by weight: Table 3; for herbicidal effect at concentrations lower than 5% by weight: Table 3 (IBA: Tr 2-4)
Procedure: (§1) Dandelions and Kentucky Bluegrass were seeded and grown in the greenhouse for at least 10 weeks before treatment. Ready-to-use formulations containing indole-3-butyric acid (IBA) and ethylenediaminetetraacetic acid (EDTA), including ethylenediaminetetraacetic acid tetrasodium salt (EDTA Na4), ethylenediaminetetraacetic acid disodium salt (EDTA Na2), and ethylenediaminetetraacetic acid calcium sodium salt, and combinations of IBA and a chelator were prepared as detailed in Table 3 with the remainder of the formulation being comprised of water. IBA was initially dissolved in KHCO3 when the acid could not be dissolved directly and then diluted in water to the concentration indicated (this is indicated below in Table 3 by the label IBA-K). The prepared formulations were applied to sections of the dandelion and Kentucky Bluegrass plots at a rate of 200 gallons per acre (gpa).
(§2) Injuries to the grass and weeds were visually inspected and rated for 4 weeks using a 0-10 scale: 0=no injury; 10=plant dead. For turfgrass, ratings greater than 3 indicated unacceptable phytotoxicity. The numbers indicate the maximum effect observed on the various plants. When regrowth of the plants following application was observed, it is noted in the table following the overall injury score.

[3] = Solubility of IBA in aqueous solutions (Example 9); format: physicochemical
Text: The solubility of IBA and its salts was investigated in various aqueous solutions under different pH conditions. The effect of chelators such as EDTA and HEDTA on the solubility of IBA was also investigated. The data provided further evidence of the relatively limited water solubility of the IBA acid (<0.1%).

Kentucky Bluegrass = test: Injury to Kentucky Bluegrass in greenhouse study (Example 2, IBA/EDTA); format: in vivo; details: tested alone, Table 3
Procedure: as §1, §2

[4] = Dissolving IBA when preparing formulations (Example 2); format: physicochemical; details: Treatment 10, 12 and 14 of Table 3
Procedure: as §1

SMILES	control of the dandelions (Dandelions [1])	time after which the weeds began to exhibit regrowth (buckhorn plantains)	control on the buckhorn plantains (buckhorn plantains; 200 gpa, second application after 21 days, rated over 56 days)	control on weeds (Dandelions [2])	regrowth of the weeds (Dandelions [2]; Table 3, after application)	effect on weeds at concentrations greater than 5% by weight (Dandelions [2])	herbicidal effect at concentrations lower than 5% by weight (Dandelions [2])	dissolution of a 1% solution under alkaline conditions ([3]; 1% solution of IBA)	pH at which a 1% solution was stable ([3]; 1% solution of IBA)	water solubility ([3]; IBA acid in water)	injury to the grass at concentrations greater than 5% by weight (Kentucky Bluegrass)	dissolution of IBA in EDTA-Na4 [4]
O=C(O)CN(CCN(CC(=O)O)CC(=O)O)CCN(CC(=O)O)CC(=O)O [DTPA, diethylenetriaminepentaacetic acid]	moderate control	> 25 days	moderate control									
O=C(O)CN(CCN(CC(=O)O)CC(=O)O)CC(=O)O [EDTA, ethylenediaminetetraacetic acid]				low to moderate control	grow back after 14 or 28 DAT	burns the leaves of weeds	limited herbicidal effect					
O=C(O)CCCc1c[nH]c2ccccc12 [IBA, indole-3-butyric acid]	moderate control			low to moderate control		exhibited control of the weeds	limited herbicidal effect	dissolves well	> 6	< 0.1%	severe injury	can be dissolved in EDTA-Na4 directly without addition of KHCO3
